# From PMC6271338, “Synthesis and Cytotoxic Evaluation of Alkoxylated Chalcones” (Molecules, 2014)
# Columns and labels:
# HepG2 cells = experiment: In vitro anti-proliferative SRB assay, HepG2; assay type: cell-based, human; conditions: for IC50 / inhibition at 10 µM: Homo sapiens; for IC50: HepG2, increasing concentrations up to 30 μM, mean ± SD of at least three independent experiments; for SI (CC50 HMLE/IC50 HepG2) / SI (CC50 L02/IC50 HepG2): selectivity index; for SI (CC50 HMLE/IC50 HepG2): HMLE vs HepG2; for SI (CC50 L02/IC50 HepG2): L02 vs HepG2; for inhibition at 10 µM: HepG2 cells, SRB assay, mean ± SD of three independent experiments
# Protocol: (§1) HepG2 and MCF7 cells were grown in the Eagle’s minimum essential medium with Earle’s balanced salts (MEM-EBSS) medium, HeLa, A549 and L02 cells were grown in Dulbecco’s Modified Eagle Media (DMEM), SW1990 cells were grown in RPMI-1640 medium, and HMLE cell were grown in DMEM/F-12 medium. […]
# (§2) Cells were seeded into 96-well plates (4000 cells/well) and incubated at 37 °C in a humidified 5% CO2 atmosphere. After 24 h, the cells were treated with different concentrations of the compounds for 48 h in triplicate to generate dose-response curves. Cell viability was evaluated using the sulforhodamine B (SRB) assay as previous described.
# A549 cells = experiment: In vitro anti-proliferative SRB assay, A549; assay type: cell-based, human; conditions: for IC50: Homo sapiens, A549, increasing concentrations up to 30 μM, mean ± SD of at least three independent experiments; for SI (CC50 HMLE/IC50 A549) / SI (CC50 L02/IC50 A549): selectivity index; for SI (CC50 HMLE/IC50 A549): HMLE vs A549; for SI (CC50 L02/IC50 A549): L02 vs A549
# Protocol: as §1, §2
# [1] = Cytotoxicity (SRB) against non-tumoral HMLE cells; assay type: cell-based, human; conditions: human, HMLE cells (non-tumoral human mammary epithelial cells); increasing concentrations up to 100 μM; mean ± SD of at least three independent experiments; read-out: Normal Human Cell Lines, CC50, HMLE
# Protocol: (§3) All compounds were also evaluated for their cytotoxic activity against two non-tumoral human cell lines named human mammary epithelial cell (HMLE) and L02 (a human liver cell line) in Table 2 and SI values between the CC50 in non-tumoral cell lines and IC50 in tumoral cells calculated.
# as §1
# as §2, with “described. […] Etoposide was used as the positive control.” for “described.”
# [2] = Cytotoxicity (SRB) against non-tumoral L02 cells; assay type: cell-based, human; conditions: human, L02 cells (non-tumoral human liver cell line); increasing concentrations up to 100 μM; mean ± SD of at least three independent experiments; read-out: Normal Human Cell Lines, CC50, L02
# Protocol: as §3, §1
# as §2, with “described. […] Etoposide was used as the positive control.” for “described.”
# HeLa cells = experiment: In vitro anti-proliferative SRB assay, HeLa; assay type: cell-based, human; conditions: for IC50: Homo sapiens, HeLa, increasing concentrations up to 30 μM, mean ± SD of at least three independent experiments; for SI (CC50 HMLE/IC50 Hela) / SI (CC50 L02/IC50 Hela): selectivity index; for SI (CC50 HMLE/IC50 Hela): HMLE vs HeLa; for SI (CC50 L02/IC50 Hela): L02 vs HeLa
# Protocol: as §1, §2
# SW1990 cells = experiment: In vitro anti-proliferative SRB assay, SW1990; assay type: cell-based, human; conditions: for IC50: Homo sapiens, SW1990, increasing concentrations up to 30 μM, mean ± SD of at least three independent experiments; for SI (CC50 HMLE/IC50 SW1990) / SI (CC50 L02/IC50 SW1990): selectivity index; for SI (CC50 HMLE/IC50 SW1990): HMLE vs SW1990; for SI (CC50 L02/IC50 SW1990): L02 vs SW1990
# Protocol: as §1, §2
# MCF-7 cells = experiment: In vitro anti-proliferative SRB assay, MCF-7; assay type: cell-based, human; conditions: for IC50: Homo sapiens, MCF7, increasing concentrations up to 30 μM, mean ± SD of at least three independent experiments; for SI (CC50 HMLE/IC50 MCF7) / SI (CC50 L02/IC50 MCF7): selectivity index; for SI (CC50 HMLE/IC50 MCF7): HMLE vs MCF7; for SI (CC50 L02/IC50 MCF7): L02 vs MCF7
# Protocol: as §1, §2
SMILES,IC50 (HepG2 cells) [µM],melting point [°C],IC50 (A549 cells) [µM],IC50 (HeLa cells) [µM],IC50 (SW1990 cells) [µM],IC50 (MCF-7 cells) [µM],SI (CC50 HMLE/IC50 HepG2) (HepG2 cells),SI (CC50 L02/IC50 HepG2) (HepG2 cells),SI (CC50 HMLE/IC50 A549) (A549 cells),SI (CC50 L02/IC50 A549) (A549 cells),CC50 at 48 h [1] [µM],CC50 at 48 h [2] [µM],SI (CC50 HMLE/IC50 Hela) (HeLa cells),SI (CC50 L02/IC50 Hela) (HeLa cells),SI (CC50 HMLE/IC50 SW1990) (SW1990 cells),SI (CC50 L02/IC50 SW1990) (SW1990 cells),SI (CC50 HMLE/IC50 MCF7) (MCF-7 cells),SI (CC50 L02/IC50 MCF7) (MCF-7 cells),inhibition at 10 µM (HepG2 cells) [%]
"COc1ccc(C(=O)/C=C/c2ccc([N+](=O)[O-])cc2)cc1 [a6, (E)-1-(4-Methoxyphenyl)-3-(4-nitrophenyl)prop-2-en-1-one]",–,–,–,–,–,–,–,–,–,–,–,–,–,–,–,–,–,–,9.8 ± 5
"COc1ccc(C(=O)/C=C/c2ccc(OC)c(OC)c2OC)cc1 [a18, (E)-1-(4-Methoxyphenyl)-3-(2,3,4-trimethoxyphenyl)prop-2-en-1-one]",–,94.4 to 96.5,–,–,–,–,–,–,–,–,–,–,–,–,–,–,–,–,31.8 ± 7.3
"COc1cc([C@@H]2c3cc4c(cc3[C@@H](O[C@@H]3O[C@@H]5CO[C@@H](C)O[C@H]5[C@H](O)[C@H]3O)[C@H]3COC(=O)[C@H]23)OCO4)cc(OC)c1O [Etoposide, reference compound]",5.11 ± 0.45,–,3.23 ± 0.28,3.96 ± 0.17,29.3 ± 1.73,20.6 ± 0.34,–,–,–,–,6.42 ± 0.39,> 100,–,–,–,–,–,–,63.9 ± 0.1
"COc1ccc(/C=C/C(=O)c2ccc(OC)cc2)cc1 [a10, (E)-1,3-bis(4-Methoxyphenyl)prop-2-en-1-one]",–,–,–,–,–,–,–,–,–,–,–,–,–,–,–,–,–,–,27.7 ± 17.7
"COc1ccc(C(=O)/C=C/c2cc(OC)ccc2OC)cc1 [a13, (E)-1-(4-methoxyphenyl)-3-(2,5-dimethoxyphenyl)prop-2-en-1-one]",–,54.7 to 56.3,–,–,–,–,–,–,–,–,–,–,–,–,–,–,–,–,77 ± 2.2
"COc1ccc(C(=O)/C=C/c2c(OC)cccc2OC)cc1 [a14, (E)-1-(4-Methoxyphenyl)-3-(2,6-dimethoxyphenyl)prop-2-en-1-one]",–,123.7 to 125.7,–,–,–,–,–,–,–,–,–,–,–,–,–,–,–,–,78.1 ± 4.7
"COc1ccc(C(=O)/C=C/c2ccccc2OC)cc1 [a8, (E)-1-(4-Methoxyphenyl)-3-(2-methoxyphenyl)prop-2-en-1-one]",–,43.2 to 45.5,–,–,–,–,–,–,–,–,–,–,–,–,–,–,–,–,61.4 ± 3.4

# Further lines, with some results ahead:
IC50 (HepG2 cells) [µM],melting point [°C],IC50 (A549 cells) [µM],IC50 (HeLa cells) [µM],IC50 (SW1990 cells) [µM],IC50 (MCF-7 cells) [µM],SMILES,SI (CC50 HMLE/IC50 HepG2) (HepG2 cells),SI (CC50 L02/IC50 HepG2) (HepG2 cells),SI (CC50 HMLE/IC50 A549) (A549 cells),SI (CC50 L02/IC50 A549) (A549 cells),CC50 at 48 h [1] [µM],CC50 at 48 h [2] [µM],SI (CC50 HMLE/IC50 Hela) (HeLa cells),SI (CC50 L02/IC50 Hela) (HeLa cells),SI (CC50 HMLE/IC50 SW1990) (SW1990 cells),SI (CC50 L02/IC50 SW1990) (SW1990 cells),SI (CC50 HMLE/IC50 MCF7) (MCF-7 cells),SI (CC50 L02/IC50 MCF7) (MCF-7 cells),inhibition at 10 µM (HepG2 cells) [%]
7.71 ± 0.21,63.1 to 64.8,13.2 ± 0.43,12.2 ± 0.25,10.68 ± 0.08,11.59 ± 0.07,"CCOc1cccc(C(=O)/C=C/c2c(OC)cccc2OC)c1 [b9, (E)-1-(3-Ethoxyphenyl)-3-(2,6-dimethoxyphenyl)prop-2-en-1-one]",1.2,2.3,0.7,1.3,9.58 ± 0.44,17.4 ± 5.96,0.8,1.4,0.9,1.6,0.8,1.5,–
21.6 ± 0.97,105.4 to 107.3,27.2 ± 1.39,20.7 ± 0.78,28.38 ± 0.27,25.5 ± 0.78,"COc1cccc(OC)c1/C=C/C(=O)c1cccc(F)c1 [b32, (E)-1-(3-Fluorophenyl)-3-(2,6-dimethoxyphenyl)prop-2-en-1-one]",0.6,3.3,0.4,2.7,11.9 ± 1.28,72 ± 12.1,0.6,3.5,0.4,2.5,0.5,2.8,–
21 ± 1.75,52.6 to 54.7,> 30,> 30,> 30,28.18 ± 0.04,"COc1cccc(OC)c1/C=C/C(=O)c1ccccc1 [b1, (E)-1-Phenyl-3-(2,6-dimethoxyphenyl)prop-2-en-1-one]",0.5,1.6,<0.3,<1.1,9.47 ± 0.39,–,<0.3,<1.1,<0.3,<1.1,0.3,1.2,–
26.8 ± 0.3,98.9 to 101.1,> 30,20.3 ± 1.01,> 30,30.31 ± 0.29,"COc1cccc(OC)c1/C=C/C(=O)c1ccc(C)c(C)c1 [b5, (E)-1-(3,4-Dimethylphenyl)-3-(2,6-dimethoxyphenyl)prop-2-en-1-one]",0.6,0.9,<0.5,<0.8,15.7 ± 0.76,25.2 ± 2.71,0.8,1.2,<0.5,<0.8,0.5,0.8,–
6.97 ± 0.55,93.5 to 95.6,14 ± 0.19,9.98 ± 0.37,15.6,6.37 ± 0.05,"COc1cccc(C(=O)/C=C/c2c(OC)cccc2OC)c1 [b7, (E)-1-(3-Methoxyphenyl)-3-(2,6-dimethoxyphenyl)prop-2-en-1-one]",1.2,2.6,0.6,1.3,8.14 ± 0.53,18.1 ± 5.82,0.8,1.8,0.5,1.2,1.3,2.8,–
